# Test results published in article PMC9887116, “SDI-118, a novel procognitive SV2A modulator: First-in-human randomized controlled trial including PET/fMRI assessment of target engagement” (Frontiers in Pharmacology, 2023).
# Assay: first-in-human single oral dose safety and tolerability (adverse events)
# Description: The study consisted of three parts. Part A was a double-blind, placebo-controlled (in a 6:2 SDI-118:placebo ratio), single ascending oral dose study performed in 16 subjects equally divided into two cohorts. […] Dose levels of .3, 1, 3, 10, 30, 60, 90 and 120 mg of SDI-118 were set to be administered in an alternating panel design with a minimum washout period of 7 days between subsequent periods. In each period two different sentinel subjects were dosed (in a 1:1 SDI-118:placebo ratio) and followed-up for safety for at least 48 h before the rest of the cohort received the same dose level of the study drug.
# Safety and tolerability were assessed by questioning for adverse events (AEs), vital signs measurements (supine and orthostatic), 12-lead ECGs (always acquired in triplicate except during screening and post-study visit), standard lab safety tests on blood and urine samples, and physical and neurological examinations at regular time-points throughout the study.
structure (smiles),measurement,setting,value
O=C1C[C@H](c2cc(F)c(F)c(F)c2)CN1Cn1ncnc1Cl [SDI-118],"General Disorders, drug related TEAEs: N (%) (number of subjects)",single oral dose 10 mg (N=16),1 (16.7) N (%)
same,"General Disorders, drug related TEAEs: No. (number of observations)",single oral dose 10 mg (N=16),1
same,"Hypersomnia, drug related TEAE: N (%) (number of subjects)",single oral dose 10 mg (N=16),2 (33.3) N (%)
same,"Hypersomnia, drug related TEAE: No. (number of observations)",single oral dose 10 mg (N=16),2
same,"Nervous System Disorders, drug related TEAEs: N (%) (number of subjects)",single oral dose 10 mg (N=16),3 (50.0) N (%)
same,"Nervous System Disorders, drug related TEAEs: No. (number of observations)",single oral dose 10 mg (N=16),3
same,All drug related TEAEs: N (%) (number of subjects),single oral dose 20 mg (N=8),4 (50.0) N (%)
same,All drug related TEAEs: No. (number of observations),single oral dose 20 mg (N=8),4
same,"Dizziness, drug related TEAE: N (%) (number of subjects)",single oral dose 20 mg (N=8),4 (50.0) N (%)
same,"Dizziness, drug related TEAE: No. (number of observations)",single oral dose 20 mg (N=8),4
same,"Nervous System Disorders, drug related TEAEs: N (%) (number of subjects)",single oral dose 20 mg (N=8),4 (50.0) N (%)
same,"Nervous System Disorders, drug related TEAEs: No. (number of observations)",single oral dose 20 mg (N=8),4
same,All drug related TEAEs: N (%) (number of subjects),single oral dose 40 mg (N=6),3 (50.0) N (%)
same,All drug related TEAEs: No. (number of observations),single oral dose 40 mg (N=6),4
same,"Dizziness, drug related TEAE: N (%) (number of subjects)",single oral dose 40 mg (N=6),3 (50.0) N (%)
same,"Dizziness, drug related TEAE: No. (number of observations)",single oral dose 40 mg (N=6),3
same,"Hypersomnia, drug related TEAE: N (%) (number of subjects)",single oral dose 40 mg (N=6),1 (16.7) N (%)
same,"Hypersomnia, drug related TEAE: No. (number of observations)",single oral dose 40 mg (N=6),1
same,"Nervous System Disorders, drug related TEAEs: N (%) (number of subjects)",single oral dose 40 mg (N=6),3 (50.0) N (%)
same,"Nervous System Disorders, drug related TEAEs: No. (number of observations)",single oral dose 40 mg (N=6),4
same,All drug related TEAEs: N (%) (number of subjects),single oral dose 60 mg (N=6),3 (50.0) N (%)
same,All drug related TEAEs: No. (number of observations),single oral dose 60 mg (N=6),4
same,"Cardiac Disorders, drug related TEAEs: N (%) (number of subjects)",single oral dose 60 mg (N=6),1 (16.7) N (%)
same,"Cardiac Disorders, drug related TEAEs: No. (number of observations)",single oral dose 60 mg (N=6),1
same,"Dizziness, drug related TEAE: N (%) (number of subjects)",single oral dose 60 mg (N=6),2 (33.3) N (%)
same,"Dizziness, drug related TEAE: No. (number of observations)",single oral dose 60 mg (N=6),2
same,"Hypersomnia, drug related TEAE: N (%) (number of subjects)",single oral dose 60 mg (N=6),1 (16.7) N (%)
same,"Hypersomnia, drug related TEAE: No. (number of observations)",single oral dose 60 mg (N=6),1
same,"Nervous System Disorders, drug related TEAEs: N (%) (number of subjects)",single oral dose 60 mg (N=6),2 (33.3) N (%)
same,"Nervous System Disorders, drug related TEAEs: No. (number of observations)",single oral dose 60 mg (N=6),3
same,"Postural Dizziness, drug related TEAE: N (%) (number of subjects)",single oral dose 60 mg (N=6),1 (16.7) N (%)
same,"Postural Dizziness, drug related TEAE: No. (number of observations)",single oral dose 60 mg (N=6),1
same,All drug related TEAEs: N (%) (number of subjects),single oral dose 80 mg (N=6),4 (66.7) N (%)
same,All drug related TEAEs: No. (number of observations),single oral dose 80 mg (N=6),8
same,"Dizziness, drug related TEAE: N (%) (number of subjects)",single oral dose 80 mg (N=6),2 (33.3) N (%)
same,"Dizziness, drug related TEAE: No. (number of observations)",single oral dose 80 mg (N=6),2
same,"Headache, drug related TEAE: N (%) (number of subjects)",single oral dose 80 mg (N=6),1 (16.7) N (%)
same,"Headache, drug related TEAE: No. (number of observations)",single oral dose 80 mg (N=6),1
same,"Hypersomnia, drug related TEAE: N (%) (number of subjects)",single oral dose 80 mg (N=6),2 (33.3) N (%)
same,"Hypersomnia, drug related TEAE: No. (number of observations)",single oral dose 80 mg (N=6),2
same,"Irritability, drug related TEAE: N (%) (number of subjects)",single oral dose 80 mg (N=6),1 (16.7) N (%)
same,"Irritability, drug related TEAE: No. (number of observations)",single oral dose 80 mg (N=6),1
same,"Nervous System Disorders, drug related TEAEs: N (%) (number of subjects)",single oral dose 80 mg (N=6),4 (66.7) N (%)
same,"Nervous System Disorders, drug related TEAEs: No. (number of observations)",single oral dose 80 mg (N=6),7
same,"Psychiatric Disorders, drug related TEAEs: N (%) (number of subjects)",single oral dose 80 mg (N=6),1 (16.7) N (%)
same,"Psychiatric Disorders, drug related TEAEs: No. (number of observations)",single oral dose 80 mg (N=6),1
same,"Somnolence, drug related TEAE: N (%) (number of subjects)",single oral dose 80 mg (N=6),2 (33.3) N (%)
same,"Somnolence, drug related TEAE: No. (number of observations)",single oral dose 80 mg (N=6),2
same,intensity of drug related TEAEs,single oral doses 0.3-80 mg,mild in intensity
same,neurological examination,single oral doses 0.3-80 mg,No abnormalities were found
same,serious adverse events (SAEs),single oral doses 0.3-80 mg,no serious adverse events
same,safety and tolerability of single oral dose,"up to 80 mg, healthy male subjects",safe and well tolerated
